Source: article PMC10852989, “Combining cisplatin and a STING agonist into one molecule for metalloimmunotherapy of cancer” (National Science Review, 2024)

How the values were obtained:
Pan02 cells = assay: Pan02 cell viability with cell death inhibitors / at matched Pt uptake; assay type: cell-based; conditions: Pan02, I 0.2 μM; necrostatin-1 50 μM, ferrostatin 50 μM
Description: For Pan02 cells, the cell viability in the presence of different cell death inhibitors was also determined. Therefore, Pan02 cells were respectively pre-incubated with z-VAD-fmk (50 μM), 3-Methyladenine (100 μM), ferrostatin (50 μM), necrostatin-1 (50 μM) 1 h, and then co-incubated I (0.2 μM) for 72 h. The cell viability was then determined.
Fig. S17. (A) The chemical structure of Pt-E-I. (B) Cellular uptake of Pt (ng Pt/mg protein) in Pan02 cells after exposure to Pt-E-I (5 μM) for 6 h. NH4Cl: cells preincubated with 50 mM NH4Cl; MI: cells preincubated with 50 mM 2-deoxy-D-glucose and 5 μΜ oligomycin. (C) Cellular uptake of Pt (ng Pt/mg protein) in Pan02 cells after exposure to I and Pt-E-I (1, 2, 5, 10, 20 μM) for 6 h. (D) The cell viability of Pan02 treated with I (5 μM) and Pt-E-I (20 μM). (E) Hierarchical clustering of differentially expressed genes between I-treated (5 μM) Pan02 cells, Pt-E-I-treated (20 μM) and nontreated cells.

STING pathway in BMDCs = assay: IFN-β and IL-6 ELISA in supernatants of BMDCs treated with complexes; assay type: cell-based, mouse
Description: (§1) ELISA. Bone marrow-derived dendritic cells (BMDCs) were prepared according to the following method. Briefly, femurs and tibias were removed from 4-6 week-old C57BL/6 mice, and the bone marrow cells were isolated. The bone marrow cells were incubated in T cell medium [RPMI-1640 medium (with GlutaMAX), supplemented with 10% FBS, 1% HEPES, 1% NEAA, 1% sodium pyruvate, and 0.1% βME] containing 20 ng/mL GM-CSF for 6 days after erythrocyte lysis, during which time half of the medium was replaced with fresh T cell medium once and the cytokines were supplemented. Then, the BMDCs were harvested on day 7 for further study.
(§2) BMDCs were cultured with 50% CM plus 50% fresh medium for 18 h. In addition, BMDCs were cultured with fresh medium containing different complexes or mixtures (15 μM CDDP and I, a mixture of I and 8 equiv. AsA, and equal AsA). Then, all the BMDC supernatant was collected and centrifuged for subsequent cytokine analysis using ELISA kits, which were performed according to the manufacturer’s instructions.

BxPC3 cells = assay: 72 h MTT cytotoxicity, BxPC3; assay type: cell-based, human
Description: (§3) Cytotoxicity. Tumor cells were cultured overnight after inoculation in RPMI-1640 medium or DMEM supplemented with 10% FBS. All cultures were maintained in an incubator in a highly humidified atmosphere of 95% air with 5% CO2 at 37 °C. Growth inhibition was measured with an MTT assay. Briefly, 2800–7000 cells per well in culture medium (100 μL) were plated in 96-well plates (Corning). The cells were treated in triplicate with different concentrations of complexes at 37 ℃ for 72 h. Stock solutions of CDDP and oxoplatin were prepared in PBS, while stock solutions of conjugates I and II and the ligand MSA-2 were prepared in DMSO. The stock solutions were diluted in complete medium (DMSO < 0.5%). An aliquot of MTT solution (40 μL, 2.5 mg·mL^–1) in PBS buffer was added to each well and incubated for 4 h. The supernatant was removed and DMSO (150 μL) was added to solubilize the formazan crystals. The amount of formazan was determined using a microplate reader at 570 nm after the plates were shaken for 30 min. The optical density (OD) was used to calculate the percentage of viable cells relative to untreated control values. Background readings for MTT incubated in cell-free medium were subtracted from each value before calculation. […] The mean IC50 values were calculated using data from three replicates.

Pan02 tumors = assay: in vivo antitumor activity, C57BL/6 mice bearing Pan02 tumors; parameters: species or system mouse
Description: In vivo antitumor activity. Female C57BL/6 mice (6–8 weeks old) were subcutaneously implanted with pan02 cells (2 × 10^6) in the right flank. Once the tumor volume reached approximately 60 mm^3, the mice were assigned to 4 groups at random (n = 5–8) and received treatment with PBS, CDDP (10.0 μmol/kg), I (10.0 μmol/kg), or a mixture of CDDP (10.0 μmol/kg) and MSA-2 (10.0 μmol/kg). The mice received 9 treatments. Changes in body weight and tumor volume were recorded. All the experimental procedures utilizing mice were performed in accordance with the Guidelines for Care and Use of Laboratory Animals of Nanjing University and experiments were approved by the Institutional Animal Care and Use Committee of Nanjing University (IACUC-2101001, SL-019-00).

Caov3 cells = assay: 72 h MTT cytotoxicity, Caov3; assay type: cell-based, human
Description: as §3

[1] = H&E histology of major organs after treatment; assay type: in vivo, mouse; conditions: C57BL/6 mice after treatment, 10.0 μmol/kg
Description: Hematoxylin and eosin staining. Tissue samples were subjected to histopathological examination using hematoxylin and eosin (H&E) staining. Mouse organs (heart, liver, spleen, lungs and kidneys) were collected in 4% paraformaldehyde for proper fixation and then embedded in paraffin using a tissue embedding machine. Sections were prepared in an orderly manner by dewaxing, dehydration, and H&E staining. The tissue morphology was observed under a fluorescence microscope (Olympus BX41, Japan).

[2] = system: BMDCs cultured with Pan02 cell CM; assay: IFN-β ELISA of BMDCs incubated with conditioned medium of drug-treated Pan02 cells; assay type: cell-based, mouse
Description: as §1
Pan02 tumor cells were treated with various drugs at a concentration of 5 μM for 48 h, and then the drug-pretreated tumor cell supernatant was obtained by centrifugation at a speed of 12000 rpm/min for 5 min and used as conditioned media (CM) subsequently.
as §2

[3] = reduction by ascorbic acid (AsA) followed by 1H-/195Pt-NMR; assay type: physicochemical; conditions: 20 mM, 8 equiv. AsA, 5:1 d6-DMSO:D2O, 37 °C, dark
Description: Reduction of I and II. Samples were prepared by reacting I or II (20 mM) with 8 equiv. AsA in 5:1 d6-DMSO:D2O solutions. The time course of the reaction was monitored by ^1H-NMR and ^195Pt-NMR after incubation of the samples were incubated at 37 °C for 0, 3, 6, 12, 24, 36, 48, 60, 72, 84, 96, or 120 h in the dark.

[4] = pretreated with 8 equiv. AsA for 24 h, compared with no pretreatment

SMILES: COc1cc2cc(C(=O)CCC(=O)[O][Pt]([NH2])([NH2])([OH])([Cl])[Cl])sc2cc1OC [conjugate I]
- cell killing on co-incubation with necroptosis and ferroptosis inhibitors (Pan02 cells): significant reversal of cell killing
- IFN-β secretion by BMDCs (STING pathway in BMDCs; 18 h, ELISA, 15 μM): minimal
- IL-6 secretion by BMDCs (STING pathway in BMDCs; 18 h, ELISA, 15 μM): minimal
- IFN-β secretion by BMDCs, compound pretreated with AsA (STING pathway in BMDCs; [4]): significantly enhanced
- IL-6 secretion by BMDCs, compound pretreated with AsA (STING pathway in BMDCs; [4]): significantly enhanced
- IC50 (BxPC3 cells): 0.02 ± 0.01 µM
- tumor volume (Pan02 tumors; C57BL/6 mice, Pan02 tumors, 10.0 μmol/kg every 2 days for 16 days, intravenous): 106.3 ± 6.2 mm^3
- tumor growth after cessation of treatment (Pan02 tumors; monitored another 6 days): substantially suppressed
- IC50 (Caov3 cells): 0.7 ± 0.1 µM
- histological findings in major organs [1]: only mild vacuolar degeneration in the liver and aggregates containing only a few inflammatory cells in the lungs
- IFN-β secretion by BMDCs pretreated with MyD88 inhibitor, treated Pan02 cell CM ([2]; MyD88 inhibitor TJ-M2010-5): significant decrease
- IFN-β secretion by BMDCs incubated with treated Pan02 cell CM ([2]; Pan02 treated 48 h at 5 μM (Pt-E-I 20 μM), BMDCs 50% CM, 18 h): markedly increased
- time at which reduction by AsA finished [3]: 24 h
